From publication PMC4236014, “Intestine-Targeted DGAT1 Inhibition Improves Obesity and Insulin Resistance without Skin Aberrations in Mice” (PLoS ONE, 2014)
“And” between values parts separate entries of the source, which are not always exact repeats. Equal values may be shown once. “Also recorded” adds a separate entry of the source.

Experiments:
Log D (lipophilicity) = assay type: physicochemical
[1] = mouse plasma protein binding; assay type: in vitro ADME
HT-29 human colon cells = experiment: Triglyceride synthesis in HT-29 cells (14C oleic acid incorporation); assay type: cell-based; conditions: Compound A 0.3 to 3 µM, Compound B 0.1 to 3 µM
Procedure: (§1) The HT-29 cell line (American Type Culture Collection, Manassas, VA) was maintained in the McCoy’s 5A medium (Life Technologies, Carlsbad, CA) containing 10% fetal bovine serum. The HepG2 cell line (American Type Culture Collection) was maintained in the Dulbecco’s Modified Eagle Medium (Sigma-Aldrich, St. Louis, MO) containing 10% fetal bovine serum. For the experiments, the HT-29 cells were plated in 12-well plates at 3×10^5 cells, the HepG2 cells were plated in 12-well plates at 5×10^5 cells. The cells were cultured in serum-free media for 24 h, and incubated with a compound and oleic acid-albumin (Sigma-Aldrich) solubilized in dimethyl sulfoxide (final 0.1%) for 30 min. The triglyceride synthesis was initiated by the addition of ^14C oleic acid (0.2 µCi). The cells were washed in PBS and harvested into the organic phase using hexane:2-propanol (3∶2) 30 min after initiation of the triglyceride synthesis. The solvent was evaporated, the extracts were solubilized in chloroform, and lipids were separated via TLC. Incorporation of the radiolabel into the triglyceride fraction was analyzed using BAS2000 in triplicate. The IC50 of each compound was calculated using GraphPad Prism.

HepG2 human liver cells = experiment: Triglyceride synthesis in HepG2 cells (14C oleic acid incorporation); assay type: cell-based; conditions: Compound A 0.3 to 3 µM, Compound B 0.1 to 3 µM
Procedure: as §1

[2] = Compound distribution in mice (plasma, skin, intestine) after oral 30 mg/kg; assay type: in vivo, C57BL/6J mice; conditions: for Tmax / concentration at 24 h / Kp / Cmax: C57BL/6J, mouse; for Tmax: in vivo; for concentration at 24 h: intestine, 24 h after administration, read-out: C 24 in intestine; for Kp: intestine/plasma, read-out: Intestine/Plasma ratio at T max; for Cmax: plasma, read-out: C max in plasma; for Cmax / C max in intestine / C max in skin: 3 mice
Procedure: Exposure was analyzed using blood, skin, and intestine samples from the C57BL/6J mice orally treated with 30 mg/kg of a compound. At 1, 4, 8, and 24 h after the administration, mice were anesthetized with isoflurane, and blood, skin, and intestine samples were collected. Three mice were used in each group. The blood samples were collected with sodium heparin, subjected to centrifugation, and plasma samples were collected. The skin and the intestine were homogenized and centrifuged to collect samples. The compound concentrations in each tissue sample with values equal to or greater than the lower limit of quantification (LLOQ; 0.005 µg/ml) were used for analyses (HPLC-MS/MS: Shiseido, Tokyo, Japan, Thermofisher Scientific, Waltham, MA).

[3] = system: skin of diet-induced-obese (DIO) mice; experiment: Effects on the skin in diet-induced-obese (DIO) mice, 4-week treatment, histopathology; assay type: in vivo, C57BL/6J mice; conditions: 4 weeks; for skin aberrations (histopathology): oral, 30 mg/kg Compound A once daily, 30 mg/kg Compound B twice daily, 30 mg/kg
Procedure: After 10 weeks on high-fat diet, mice became obese (36±0.24 g). […] After 4 weeks of the treatment, all the animals were sacrificed. The skin (dorsolateral lesion) was removed and then fixed in 10% neutral buffered formalin, processed, embedded in paraffin, cut into thin sections and stained with Hematoxylin and Eosin. Histopathological examinations were performed. The size of the sebaceous glands were measured using WinROOF (Mitani Corporation, Tokyo, Japan).

mouse skin homogenates = experiment: Triglyceride synthesis in mouse skin homogenates; assay type: biochemical
mouse DGAT1 = molecular target: T1, mouse DGAT1 (Mus musculus, UniProt Q9Z2A7); experiment: DGAT1 enzyme assay (mouse DGAT1 in Sf9 insect microsomes, 14C decanoyl CoA); assay type: biochemical; conditions: enzyme expressed in insect microsomes; read-out: mDGAT1 IC50
T1 construct: made in house; host or cells: Sf9 insect cells (baculovirus)
T1 sequence (Q9Z2A7 1-498): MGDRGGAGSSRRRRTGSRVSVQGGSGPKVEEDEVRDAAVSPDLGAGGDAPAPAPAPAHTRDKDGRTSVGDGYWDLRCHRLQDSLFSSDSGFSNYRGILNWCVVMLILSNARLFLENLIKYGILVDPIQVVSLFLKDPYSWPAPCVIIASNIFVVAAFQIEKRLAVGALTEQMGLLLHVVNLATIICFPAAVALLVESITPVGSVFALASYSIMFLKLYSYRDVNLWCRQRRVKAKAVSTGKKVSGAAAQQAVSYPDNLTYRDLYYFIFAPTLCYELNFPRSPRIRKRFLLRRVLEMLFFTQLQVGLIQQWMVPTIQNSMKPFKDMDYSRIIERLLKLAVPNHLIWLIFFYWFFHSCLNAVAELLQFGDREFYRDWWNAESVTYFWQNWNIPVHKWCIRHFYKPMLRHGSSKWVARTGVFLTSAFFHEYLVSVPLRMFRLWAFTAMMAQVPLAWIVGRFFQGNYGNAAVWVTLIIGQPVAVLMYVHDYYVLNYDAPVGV
Procedure: (§2) The effects of the DGAT1 inhibitors were assessed using human (BC015762 from HeLa cell) and mouse DGAT1 (NM_010046 from mouse testis) in Sf9 insect microsomes. […] The Sf9 cells were homogenized and centrifuged at 600 g for 20 min. Thereafter, the supernatant was centrifuged at 10000 g for 1 h and the precipitate was collected as the […].
(§3) The mixture was incubated at room temperature for 45 min. The reaction was stopped by adding 0.5 M HCl and the incubated mixture was filtered using MultiscreenHTS-FB (Millipore, Billerica, MA). The human DGAT1 activity was quantified by counting the radioactivity of synthesized ^14C triglycerides by the Microbeta scintillation counter (PerkinElmer, Waltham, MA) in duplicate. […] Mouse DGAT1 enzyme assays were carried out in the same way.

human DGAT1 = molecular target: T2, human DGAT1 (Homo sapiens, UniProt O75907); experiment: DGAT1 enzyme assay (human DGAT1 in Sf9 insect microsomes, 14C decanoyl CoA); assay type: biochemical; conditions: enzyme expressed in insect microsomes; read-out: hDGAT1 IC50
T2 construct: made in house; host or cells: Sf9 insect cells (baculovirus)
T2 sequence (O75907 1-488): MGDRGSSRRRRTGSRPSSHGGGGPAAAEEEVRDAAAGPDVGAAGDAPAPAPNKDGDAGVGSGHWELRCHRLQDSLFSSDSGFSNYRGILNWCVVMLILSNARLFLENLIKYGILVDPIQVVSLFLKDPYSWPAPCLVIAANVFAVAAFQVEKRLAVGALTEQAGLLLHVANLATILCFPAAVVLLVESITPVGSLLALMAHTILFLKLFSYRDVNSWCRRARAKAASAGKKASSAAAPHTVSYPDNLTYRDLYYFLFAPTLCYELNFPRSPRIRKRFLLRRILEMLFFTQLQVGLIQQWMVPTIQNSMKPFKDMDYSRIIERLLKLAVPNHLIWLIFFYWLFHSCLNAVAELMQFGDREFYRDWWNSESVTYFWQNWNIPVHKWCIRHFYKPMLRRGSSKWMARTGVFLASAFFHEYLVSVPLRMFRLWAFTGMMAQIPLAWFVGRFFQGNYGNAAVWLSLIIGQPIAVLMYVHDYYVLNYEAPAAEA
Procedure: as §2, §3

[4] = system: postprandial hyperlipidemia in mice; experiment: Postprandial hyperlipidemia in mice (corn oil load); assay type: in vivo, C57BL/6J mice
Procedure: Eight-week-old male C57BL/6J mice were divided into treatment groups, each consisting of 7–8 mice, based on the body weight for the purpose of simplification of dose calculation. […] Blood samples were collected 1, 2, and 3 h later, and the plasma triglyceride level was determined by using WAKO TG H (Wako, Osaka, Japan). The area under the curve (AUC) of plasma triglyceride (AUCtriglyceride) was calculated.

[5] = system: glucagon-like peptide-1 (GLP-1) secretion; experiment: GLP-1 secretion in mice after corn oil; assay type: in vivo; conditions: oral 10 and 30 mg/kg, 2 h after corn oil
Procedure: Mice were divided into treatment groups, each consisting of 6–8 mice, based on the body weight for the purpose of simplification of dose calculation. […] Blood samples were collected 2 h later, and the plasma GLP-1 level was determined by using Glucagon Like Peptide-1 (Active) ELISA Kit (Linco Research, Inc., St. Charles, MO).

[6] = system: diet-induced-obese (DIO) mice; experiment: Long-time (4-week) treatment in DIO mice; assay type: in vivo, C57BL/6J mice; conditions: 4 weeks
Procedure: The DIO mice were fed with high-fat diet during the 4-week treatment period. Mice were fasted for 4 hours prior to blood collection. Plasma glucose, insulin, triglyceride, and free fatty acid concentrations were determined by using Glucose CII Test Wako (Wako), ultra sensitive mouse ELISA (Morinaga, Yokohama, Japan), L type WAKO TG H, and HA test WAKO NEFA (Wako), respectively.

Compound: CC1(C)Oc2ncnc(N)c2N=C1c1ccc([C@H]2CC[C@H](CC(=O)O)CC2)cc1 [Compound A, 4-[4-(4-amino-2,7,7-trimethyl-7H-pyrimido[4,5-b][1], [4]oxazin-6-yl)phenyl]-trans-Cyclohexaneacetic acid]
- logD (Log D (lipophilicity)): < 0.9
- fraction unbound [1]: 0.032
- inhibition of cellular triglyceride synthesis (HT-29 human colon cells): significant inhibition was observed at 1 and 3 µM
- inhibition of cellular triglyceride synthesis (HepG2 human liver cells): at all the concentrations tested
- Tmax [2]: 1 h
- concentration at 24 h ([2]; means ± SD): 24 ± 1.6 µM
- Kp ([2]; means ± SD): 0.32
- Cmax ([2]; means ± SD): 240 ± 59 µM
- C max in intestine ([2]; means ± SD): 77 ± 37 µmol/kg
- C max in skin ([2]; means ± SD): 14 ± 0.62 µmol/kg
- injurious or inflammatory changes of the skin ([3]; 30 mg/kg once daily): no injurious or inflammatory changes
- recovery of skin aberrations after compound withdrawal ([3]; 30 mg/kg once daily, then withdrawal): 2 weeks
- skin aberrations (histopathology) [3]: skin aberrations derived from atrophy of the sebaceous gland; also recorded: moderate skin aberrations
- inhibition of triglyceride synthesis (mouse skin homogenates): inhibited the cellular triglyceride synthesis

Compound: O=C(Nc1ccccc1)Nc1ccc(-c2ccc(C(=O)[C@@H]3CCC[C@H]3C(=O)O)cc2)cc1 [Compound B, (1R, 2R)-2-[[4′-[[(Phenylamino)carbonyl]amino][1,1′-biphenyl]-4-yl]carbonyl]cyclopentanecarboxylic acid]
- IC50 (mouse DGAT1): 0.0155 µM
- IC50 (human DGAT1): 0.0084 µM
- logD (Log D (lipophilicity)): < 0.9
- fraction unbound [1]: 0.001
- inhibition of cellular triglyceride synthesis (HT-29 human colon cells): significant inhibition was observed at 1 and 3 µM
- inhibition of cellular triglyceride synthesis (HepG2 human liver cells): at all the concentrations tested
- Tmax [2]: 1 h
- concentration at 24 h ([2]; means ± SD): 19 ± 3.7 µM
- Kp ([2]; means ± SD): 10
- Cmax ([2]; means ± SD): 9.1 ± 2.3 µM
- skin/IC50 (C max in skin/mDGAT1 IC50) ([2]; means ± SD): 0.084±0.033
- Intestine/Plasma ratio at T max ([2]; means ± SD, 30 mg/kg): 10±2.8
- Intestine/Skin ratio at T max ([2]; means ± SD, 30 mg/kg): 74 and 74±8.4
- C max in intestine ([2]; means ± SD): 92 ± 36 µmol/kg
- C max in skin ([2]; means ± SD): 1.3 ± 0.51 µmol/kg
- skin aberrations (histopathology) [3]: changes in the skin were not observed; also recorded: no skin aberrations
- plasma triglyceride levels after corn oil ([4]; oral 0.3, 1, 3 or 10 mg/kg 12 h before 3 ml/kg corn oil): reduced plasma triglyceride levels with a dose-dependent tendency
- dose of maximum efficacy on plasma triglyceride ([4]; oral, 12 h before corn oil): 10 mg/kg
- plasma GLP-1 levels after corn oil administration [5]: increased plasma glucagon-like peptide-1 (GLP-1) levels
- fatty liver (histological analysis) ([6]; 10 or 30 mg/kg): attenuated fatty liver
- body weight gain ([6]; oral 1, 3, 10 or 30 mg/kg twice daily): significant attenuation and significant reduction were observed at 10 mg/kg and 30 mg/kg, respectively
- concentration of total-cholesterol in the liver ([6]; oral twice daily): significant reduction was observed at 30 mg/kg
- concentration of triglyceride in the liver ([6]; oral twice daily): significant reduction was observed at 30 mg/kg
- liver weight ([6]; oral twice daily): lack of differences in the liver weight among the groups
- plasma glucose levels ([6]; oral twice daily): significant reduction was observed at 30 mg/kg
- plasma insulin concentrations ([6]; oral twice daily): tended to decrease
- weight of epididymal fat ([6]; oral twice daily): significant reduction was observed at 30 mg/kg
- weight of mesenteric fat ([6]; oral twice daily): significant reduction was observed at 30 mg/kg
- inhibition of triglyceride synthesis (mouse skin homogenates): inhibited the cellular triglyceride synthesis
